Consider 37 compounds from patent publication US20250325552A1, “SUBSTITUTED THIADIAZOLYL DERIVATIVES AS DNA POLYMERASE THETA INHIBITORS” (IDEAYA Biosciences, Inc., priority 2020, published 2025).

The assay deals with Polθ theta (1-899) (hPolQ) (Homo sapiens (Human), UniProt O75417). Description: Biological Assay 1: Polθ ATPase activity, NADH oxidation-coupled enzymatic assay (10 nM enzyme, 30 min). The note with it: Polθ (1-899) 10 nM, 100 μM ATP, 300 nM dT50 ssDNA; Examples 1 to 268; read-out: ATPase NADH coupling:Standard Screening:hPolQ IC50. The class given is biochemical. The protocol:
The ability of the compounds of Formula (I), (II), (III), (IV), or Table 1 (Examples 1 to Example 268) to inhibit ATPase activity of Polθ theta (1-899) was determined using the assay described below.
Polθ Theta ATPase activity was determined by measuring the rate of ATP turn over in a NADH oxidation-coupled enzymatic assay. 10-point dilution series of compounds were used in a 384 well format for the inhibition assays. Polθ theta (1-899) (10 nM) in assay buffer (20 mM Tris HCl (pH 7.80), 80 mM KCl, 10 mM MgCl2, 1 mM DTT, 0.01% BSA, 0.01% Tween, 5% glycerol) was transferred to the test wells (20 μL), except the low control wells (20 μL of assay buffer was added to the low control wells). The plate was then incubated at room temperature for 15 min. An equal volume (20 μL) of 100 μM ATP, 300 nM dT50 (single-stranded DNA (ssDNA) containing 50 thymine bases), 300 μM NADH, 6 mM PEP, 10 U/mL lactate dehydrogenase and U/mL pyruvate kinase in assay buffer was added to all the test wells. The plate was then centrifuged at 1000 rpm for 1 min. The reaction was monitored for 30 min by measuring absorbance (λ=340 nm) in a Tecan Spark multimode plate reader every minute. The high control (DMSO with enzyme) with low absorbance intensity represents no inhibition of ATPase reaction while the low control (DMSO with buffer) with high absorbance intensity represents full inhibition of ATPase activity. Slope of the reaction progress curves were used to calculate the rate of ATP hydrolysis. The rates were used to determine the percent inhibition using a four-parameter inhibition model to generate IC50, Hill slope and max inhibition.

Polθ theta (1-899) (hPolQ), sequence (O75417 1-899): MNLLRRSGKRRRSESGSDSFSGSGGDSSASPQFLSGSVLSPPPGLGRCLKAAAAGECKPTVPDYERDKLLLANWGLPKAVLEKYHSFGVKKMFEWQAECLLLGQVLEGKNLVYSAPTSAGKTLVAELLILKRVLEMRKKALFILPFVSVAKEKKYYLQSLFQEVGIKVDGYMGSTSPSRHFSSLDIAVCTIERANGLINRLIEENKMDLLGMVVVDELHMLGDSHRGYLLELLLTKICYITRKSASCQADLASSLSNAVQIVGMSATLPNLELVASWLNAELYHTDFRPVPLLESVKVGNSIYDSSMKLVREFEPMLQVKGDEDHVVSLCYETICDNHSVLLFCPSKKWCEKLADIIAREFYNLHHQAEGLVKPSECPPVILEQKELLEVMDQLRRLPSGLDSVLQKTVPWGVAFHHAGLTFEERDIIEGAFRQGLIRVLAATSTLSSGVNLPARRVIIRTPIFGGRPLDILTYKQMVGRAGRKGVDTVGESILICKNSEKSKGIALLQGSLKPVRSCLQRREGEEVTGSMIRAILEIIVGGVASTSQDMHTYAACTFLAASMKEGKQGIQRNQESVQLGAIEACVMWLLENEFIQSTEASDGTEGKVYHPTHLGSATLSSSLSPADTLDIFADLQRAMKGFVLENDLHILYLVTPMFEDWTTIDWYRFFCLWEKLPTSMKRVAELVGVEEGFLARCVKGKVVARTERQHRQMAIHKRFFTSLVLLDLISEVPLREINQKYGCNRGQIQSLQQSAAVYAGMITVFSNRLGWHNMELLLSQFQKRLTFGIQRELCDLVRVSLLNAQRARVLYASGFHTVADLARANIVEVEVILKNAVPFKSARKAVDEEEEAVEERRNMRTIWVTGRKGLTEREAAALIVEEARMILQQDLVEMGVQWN

By IC50 is commonly meant the concentration at which inhibition is half-maximal. For the compound `COc1cccc(F)c1-c1cc(C)ncc1C(=O)Nc1nnc(OCc2ccc(C(C)O)cn2)s1` (racemic) [Example 22, 4-(2-fluoro-6-methoxyphenyl)-N-(5-((5-(1-hydroxyethyl)pyridin-2-yl)methoxy)-1,3,4-thiadiazol-2-yl)-6-methylnicotinamide], the IC50 is at most 200 nM.
For the compound `COc1cccc(F)c1-c1cc(C)ncc1C(=O)Nc1nnc(OCc2ccc(S(C)(=N)=O)cc2)s1` (racemic) [Example 79, 4-(2-fluoro-6-methoxyphenyl)-6-methyl-N-(5-((4-(S-methylsulfonimidoyl)benzyl)oxy)-1,3,4-thiadiazol-2-yl)nicotinamide], the half-maximal inhibitory concentration (IC50) is at most 200 nM.
Under `COc1cccc(F)c1-c1cc(C)ncc1C(=O)Nc1nnc(OCc2ccc3c(n2)CCCC3O)s1` (racemic) [Example 92, 4-(2-fluoro-6-methoxyphenyl)-N-(5-((5-hydroxy-5,6,7,8-tetrahydroquinolin-2-yl)methoxy)-1,3,4-thiadiazol-2-yl)-6-methylnicotinamide] stands at most 200 nM.
With `COc1cnc(Cl)cc1-c1cc(C)ncc1C(=O)Nc1nnc(OCC2CCO2)s1` (racemic) [Example 165, 2′-chloro-5′-methoxy-6-methyl-N-(5-(oxetan-2-ylmethoxy)-1,3,4-thiadiazol-2-yl)-(4,4′-bipyridine)-3-carboxamide], the concentration for half-maximal inhibition (IC50) is at most 200 nM.
To `COc1cnc(Cl)cc1-c1cc(C)ncc1C(=O)Nc1nnc(OCC2CCOC2)s1` (racemic) [Example 167, 2′-chloro-5′-methoxy-6-methyl-N-(5-((tetrahydrofuran-3-yl)methoxy)-1,3,4-thiadiazol-2-yl)-(4,4′-bipyridine)-3-carboxamide] belongs at most 200 nM.
In the case of `COc1cnc(Cl)cc1-c1cc(C)ncc1C(=O)Nc1nnc(OCC2CCNC2)s1` (racemic) [Example 175, 2′-chloro-5′-methoxy-6-methyl-N-(5-(pyrrolidin-3-ylmethoxy)-1,3,4-thiadiazol-2-yl)-(4,4′-bipyridine)-3-carboxamide], the half-maximal inhibitory concentration (IC50) was at most 200 nM.
On to `COc1cnc(Cl)cc1-c1cc(C)ncc1C(=O)Nc1nnc(OC[C@@H]2CO[C@H](CO)CO2)s1` (racemic) [Example 237, rel-2′-chloro-N-(5-(((2s,5r)-5-(hydroxymethyl)-1,4-dioxan-2-yl)methoxy)-1,3,4-thiadiazol-2-yl)-5′-methoxy-6-methyl-(4,4′-bipyridine)-3-carboxamide], for which the IC50 was at most 200 nM.
Under `COc1cnc(Cl)cc1-c1cc(C)ncc1C(=O)Nc1nnc(OC[C@@H]2CO[C@@H](CO)CO2)s1` (racemic) [Example 238, rel-2′-chloro-N-(5-(((2s,5s)-5-(hydroxymethyl)-1,4-dioxan-2-yl)methoxy)-1,3,4-thiadiazol-2-yl)-5′-methoxy-6-methyl-(4,4′-bipyridine)-3-carboxamide] stands at most 200 nM; under `Cc1cc(-c2cc(Cl)ncc2OC(F)F)c(C(=O)Nc2nnc(OCC3CCOC3)s2)cn1` (racemic) [Example 259, 2′-chloro-5′-(difluoromethoxy)-6-methyl-N-(5-((tetrahydrofuran-3-yl)methoxy)-1,3,4-thiadiazol-2-yl)-(4,4′-bipyridine)-3-carboxamide], at most 200 nM.
As for `COc1cnc(Br)cc1-c1cc(C)ncc1C(=O)Nc1nnc(OCC2CCOC2)s1` (racemic) [Example 260, 2′-bromo-5′-methoxy-6-methyl-N-(5-((tetrahydrofuran-3-yl)methoxy)-1,3,4-thiadiazol-2-yl)-(4,4′-bipyridine)-3-carboxamide], the IC50 is at most 200 nM.
Under `COc1cnc(Cl)cc1-c1cc(C)ncc1C(=O)Nc1nnc(OC[C@]2(C)CCOC2)s1` (single isomer, unassigned) [Example 160] stands at most 200 nM.
On to `COc1cnc(Cl)cc1-c1cc(C)ncc1C(=O)Nc1nnc(OC[C@@]2(C)CCOC2)s1` (single isomer, unassigned) [Example 161], for which the half-maximal inhibitory concentration (IC50) was at most 200 nM.
To `COc1cnc(Cl)cc1-c1cc(C)ncc1C(=O)Nc1nnc(OC[C@@H]2CCO2)s1` (single isomer, unassigned) [Example 169] belongs at most 200 nM; to `COc1cnc(Cl)cc1-c1cc(C)ncc1C(=O)Nc1nnc(OC[C@@H]2CCO[C@@H]2C)s1` (single isomer, unassigned) [Example 179], at most 200 nM; to `COc1cnc(Cl)cc1-c1cc(C)ncc1C(=O)Nc1nnc(OC[C@@H]2CCO[C@H]2C)s1` (single isomer, unassigned) [Example 180], at most 200 nM.
As to `COc1cnc(Cl)cc1-c1cc(C)ncc1C(=O)Nc1nnc(OC[C@H]2CCO[C@H]2C)s1` (single isomer, unassigned) [Example 181], the IC50 is at most 200 nM.
`COc1cnc(Cl)cc1-c1cc(C)ncc1C(=O)Nc1nnc(OC[C@H]2CCO[C@@H]2C)s1` (single isomer, unassigned) [Example 182]: the 50% inhibitory concentration (IC50) was at most 200 nM.
As for `COc1cnc(Cl)cc1-c1cc(C)ncc1C(=O)Nc1nnc(OC[C@H]2CCOC2(C)C)s1` (single isomer, unassigned) [Example 190], the concentration for half-maximal inhibition (IC50) was at most 200 nM.
Turning to `COc1cnc(Cl)cc1-c1cc(C)ncc1C(=O)Nc1nnc(OC[C@@H]2CCOC2(C)C)s1` (single isomer, unassigned) [Example 191], the half-maximal inhibitory concentration (IC50) was at most 200 nM.
Regarding `COc1cnc(Cl)cc1-c1cc(C)ncc1C(=O)Nc1nnc(OC[C@H]2CC[C@H](O)C2)s1` (single isomer, unassigned) [Example 208], the IC50 was at most 200 nM.
In the case of `COc1cnc(Cl)cc1-c1cc(C)ncc1C(=O)Nc1nnc(OC[C@@H]2CC[C@@H](O)C2)s1` (single isomer, unassigned) [Example 209], the IC50 was at most 200 nM.
For `COc1cnc(Cl)cc1-c1cc(C)ncc1C(=O)Nc1nnc(OC[C@H]2CC[C@@H](O)C2)s1` (single isomer, unassigned) [Example 210], the half-maximal inhibitory concentration (IC50) is at most 200 nM.
For the compound `COc1cnc(Cl)cc1-c1cc(C)ncc1C(=O)Nc1nnc(OC[C@@H]2CC[C@H](O)C2)s1` (single isomer, unassigned) [Example 211], the IC50 is at most 200 nM.
To `COc1cnc(Cl)cc1-c1cc(C)ncc1C(=O)Nc1nnc(OC[C@@H]2COCC(C)(C)O2)s1` (single isomer, unassigned) [Example 220] belongs at most 200 nM.
As for `COc1cnc(Cl)cc1-c1cc(C)ncc1C(=O)Nc1nnc(OC[C@H]2COCC(C)(C)O2)s1` (single isomer, unassigned) [Example 221], the IC50 is at most 200 nM.
As for `COc1cnc(Cl)cc1-c1cc(C)ncc1C(=O)Nc1nnc(OC[C@@H]2COC(C)(C)CO2)s1` (single isomer, unassigned) [Example 222], the concentration for half-maximal inhibition (IC50) was at most 200 nM.
Turning to `COc1cnc(Cl)cc1-c1cc(C)ncc1C(=O)Nc1nnc(OC[C@H]2COC(C)(C)CO2)s1` (single isomer, unassigned) [Example 223], the IC50 was at most 200 nM.
As for `COc1cnc(Cl)cc1-c1cc(C)ncc1C(=O)Nc1nnc(OC[C@@H]2COC3(CCC3)C2)s1` (single isomer, unassigned) [Example 226], the IC50 was at most 200 nM.
Regarding `COc1cnc(Cl)cc1-c1cc(C)ncc1C(=O)Nc1nnc(OC[C@H]2COC3(CCC3)C2)s1` (single isomer, unassigned) [Example 227], the half-maximal inhibitory concentration (IC50) was at most 200 nM.
With `COc1cnc(Cl)cc1-c1cc(C)ncc1C(=O)Nc1nnc(OC[C@@]23COC[C@@H]2C3)s1` (single isomer, unassigned) [Example 230], the IC50 is at most 200 nM.
In the case of `COc1cnc(Cl)cc1-c1cc(C)ncc1C(=O)Nc1nnc(OC[C@]23COC[C@H]2C3)s1` (single isomer, unassigned) [Example 231], the IC50 was at most 200 nM.
To `COc1cnc(Br)cc1-c1cc(C)ncc1C(=O)Nc1nnc(OC[C@H]2CCOC2)s1` (single isomer, unassigned) [Example 244] belongs at most 200 nM; to `COc1cnc(Br)cc1-c1cc(C)ncc1C(=O)Nc1nnc(OC[C@@H]2CCOC2)s1` (single isomer, unassigned) [Example 245], at most 200 nM; to `COc1cnc(Cl)cc1-c1cc(C)ncc1C(=O)Nc1nnc(OC[C@H]2CO[C@@H](C)C2)s1` (single isomer, unassigned) [Example 251], at most 200 nM.
As for `COc1cnc(Cl)cc1-c1cc(C)ncc1C(=O)Nc1nnc(OC[C@H]2CO[C@H](C)C2)s1` (single isomer, unassigned) [Example 252], the IC50 is at most 200 nM.
To `COc1cnc(Cl)cc1-c1cc(C)ncc1C(=O)Nc1nnc(OC[C@@H]2CO[C@H](C)C2)s1` (single isomer, unassigned) [Example 253] belongs at most 200 nM; to `COc1cnc(Cl)cc1-c1cc(C)ncc1C(=O)Nc1nnc(OC[C@@H]2CO[C@@H](C)C2)s1` (single isomer, unassigned) [Example 254], at most 200 nM.
